Assay results from paper PMC3111455, “Matrix Metalloproteinase-8 Mediates the Unfavorable Systemic Impact of Local Irradiation on Pharmacokinetics of Anti-Cancer Drug 5-Fluorouracil” (PLoS ONE, 2011).
Like-named read-outs stand apart in the source and are kept apart here.

Legend:
[1] = parameters: method as in PMID 9188061; details: rats, mean ± SD, cited from earlier work
[2] = Bile pharmacokinetics of 5-FU in rats after whole pelvic irradiation; type: in vivo, Sprague-Dawley rats; details: for AUC / Cmax / MRT / clearance / half-life / Vd: Sprague-Dawley, rat, iv, 100 mg/kg, 5-FU 100 mg/kg i.v.; for Vd: read-out: Vss
[3] = cited from earlier work
[4] = Plasma pharmacokinetics of 5-FU in rats after whole pelvic irradiation; type: in vivo, Sprague-Dawley rats; details: for AUC / Cmax / MRT / clearance / half-life / Vd: Sprague-Dawley, rat, iv, 100 mg/kg, 5-FU 100 mg/kg i.v.; for Vd: read-out: Vss
Experimental: The rats were anesthetized with urethane 1 g/ml and α-chloralose 0.1 g/ml (1 ml/kg by intraperitoneal injection), and were immobilized on a board when undergoing computed tomography for simulation of the whole pelvic field. The cranial margin was set at the top of the bilateral iliac crests for the whole pelvic field (Fig. 7). Conventional radiotherapy was used to deliver the radiation dose via the anterior-posterior (AP) and PA portals. The experimental animals were randomized to the control, 2-Gy alone, 5-FU alone, 0.5-Gy followed by 5-FU, and 2-Gy followed by 5-FU groups. Each group's data was collected from six rats.
(§1) Twenty hours after RT, the rats were administered 100 mg/kg of 5-FU in 2 mL of normal saline by intravenous infusion into the femoral vein over a 2-min period. A 150-µL blood sample was withdrawn from the jugular vein with a fraction collector according to a programmed schedule at 5, 15, 30, 45, and 60 min, and 1.5, 2, 2.5, and 3 h following drug administration. The blood samples were immediately centrifuged at 3300×g for 10 min. The resulting plasma (50 µL) was added to 1 mL of ethyl acetate in a clean tube, vortexed for 5 min, and centrifuged at 5900×g for 10 min. After centrifugation, the upper organic layer containing the ethyl acetate was transferred to a new tube and evaporated to dryness under flowing nitrogen. The dried residue was reconstituted with 50 µL of Milli-Q water (Millipore). A 20-µL aliquot of the solution was injected to the high performance liquid chromatography-ultraviolet (HPLC-UV) detection system.
(§2) Chromatographic analysis was performed on a Model LC-20AT HPLC system (Shimadzu, Tokyo, Japan) equipped with a Model SPD-20A wavelength UV detector, SIL-20AC autosampler, and an LC Solution data processing system. A LiChroCART RP-18e column (Purospher, 250 mm, 5 µm, Merck, Darmstadt, Germany) with a LiChroCART 4-4 guard column was used for separation. The mobile phase comprised […] potassium phosphate-methanol (99∶1, v/v, pH 4.5 adjusted by 85% phosphoric acid), and the flow rate of the mobile phase was 1 ml/min. The detection wavelength was set at 266 nm. Under these conditions, the retention time of 5-FU was 5.4 min. […] Good linearity was achieved over the range of 0.01–5 µg/ml, with all coefficients of correlation greater than 0.998. All samples were freshly prepared, including the standard solutions, from the same stock solution (5 mg/mL). The 0.01-µg/mL limit of quantification was defined the lowest concentration on the calibration curve that could be measured routinely with acceptable bias and relative SD. The overall mean precision, defined by the relative SD, ranged from 0.2% to 11.0%. Analytical accuracy was expressed as the percentage difference of the mean observed values compared to known concentrations varying from −10.0% to 14.0%. The recovery results for concentrations of 0.1–10 µg/mL were 92.0%–94.0%
(§3) Pharmacokinetic parameters including the AUC for concentration versus time, terminal elimination phase t1/2, Cmax, MRT, total plasma clearance and Vss were calculated using the pharmacokinetics calculation software WinNonlin Standard Edition, Version 1.1 (Scientific Consulting, Apex, NC, USA) using a compartmental method.

[5] = tested on: alanine aminotransferase (ALT); assay: Evaluation of hepatic function (plasma ALT); type: in vivo; details: rats
Experimental: The plasma levels of alanine aminotransferase (ALT) were measured to check the influence of different modalities for hepatic function by a standard colorimetric method using a Synchron LX20 spectrophotometer (Beckman Coulter) and manufacturer-supplied reagents.

[6] = Plasma pharmacokinetics of 5-FU in rats with or without MMP-8 inhibitor before whole pelvic irradiation 2 Gy; type: in vivo, Sprague-Dawley rats; details: for AUC / Cmax / MRT / clearance / half-life / Vd: Sprague-Dawley, rat, iv, 100 mg/kg, 5-FU 100 mg/kg i.v.; for Vd: read-out: Vss
Experimental: as §1, §2
MMP-8 inhibitor I (Calbiochem, La Jolla, CA) was administered to the rats to examine whether or not RT modulation of 5-FU pharmacokinetic parameters could be blocked. Briefly, MMP-8 inhibitor I was dissolved in PEG400/ethanol [4∶1 (v/v)] solution, yielding a final concentrations of 5 mg/mL. Two hours before irradiation, 10 mg/kg of MMP-8 inhibitor I was infused into the rat's tail vein over a 2-min period. After that, the rats were anesthetized with urethane 1 g/ml and α-chloralose 0.1 g/ml (1 ml/ kg by intraperitoneal injection), and were immobilized on a board to undergo computed tomography for simulation of the whole pelvic field and received irradiation, as described previously. The experimental animals were randomized to control without PEG400/ethanol [4∶1 (v/v)] solution (0 Gy), control with solvent (0 Gy), whole pelvic irradiation (2 Gy) with solvent and whole pelvic irradiation (2 Gy) with MMP-8 inhibitor and solvent groups, respectively. After RT sham RT 20 hrs, all rats received 5-FU (100 mg/kg) injections and the pharmacokinetic parameters of 5-FU were analyzed. Each group's data was collected from four rats.
as §3

HepG2 [7] = assay: Intracellular 5-FU levels with or without recombinant MMP-8 by HPLC; type: cell-based, Human; details: 10 µg/mL recombinant MMP-8 plus 50 µM 5-FU vs 50 µM 5-FU alone, up to 60 min
Experimental: as §2, with “92.0%–94.0% […]” for “92.0%–94.0%”

HepG2 [8] = assay: Viability/toxicity of 5-FU-treated HepG2 with or without recombinant MMP-8; type: cell-based, Human; details: 5-FU-treated with or without recombinant MMP-8, data not shown
[9] = whole pelvic irradiation 0.5 Gy
[10] = plasma, controls without solvent
[11] = plasma, whole pelvic irradiation 2 Gy with solvent
[12] = plasma, plasma, whole pelvic irradiation 2 Gy with solvent and MMP-8 inhibitor (10 mg/kg, 2 h before irradiation)
[13] = MMP-8 inhibitor 10 mg/kg 2 h before 2 Gy

For `O=c1[nH]cc(F)c(=O)[nH]1` [5-FU, 5-fluorouracil], the “dose-normalized area under the curve (AUC)” value (“dose-normalized area” for short) ([1]; 10 mg/kg) is listed as 0.43 ± 0.11 mg·h/L/mg, the “dose-normalized area” value ([1]; 50 mg/kg) is listed as 0.50 ± 0.16 mg·h/L/mg and the “dose-normalized area” value ([1]; 100 mg/kg) is listed as 1.14 ± 0.55 mg·h/L/mg. For the same compound, the “increase of the AUC of 5-FU in bile by pelvic irradiation” value ([2]; 0.5 Gy vs non-irradiated controls) was 25.1%, the “increase of the AUC of 5-FU in bile by pelvic irradiation” value ([2]; 2 Gy vs non-irradiated controls) was 30.6% and the AUC ([2]; controls 0 Gy) was 19700 ng·h/mL. The Cmax ([2]; controls 0 Gy) was 129 ± 22 µg/mL, the MRT ([2]; controls 0 Gy) was 8.9 min and the clearance ([2]; controls 0 Gy) was 84.8 ± 3.6 mL/min/kg. For the same compound, the half-life ([2]; controls 0 Gy) was 9.2 ± 0.4 min, the Vd ([2]; controls 0 Gy) was 0.754 ± 0.102 L/kg and the AUC [2, 9] was 24600 ng·h/mL. The Cmax [2, 9] was 120 ± 14 µg/mL, the MRT [2, 9] was 11.1 min and the clearance [2, 9] was 67.9 ± 3.6 mL/min/kg. For the same compound, the half-life [2, 9] was 10.3 ± 0.5 min, the Vd [2, 9] was 0.753 ± 0.025 L/kg and the AUC ([2]; whole pelvic irradiation 2 Gy) was 25700 ng·h/mL. The Cmax ([2]; whole pelvic irradiation 2 Gy) was 93 ± 6 µg/mL, the MRT ([2]; whole pelvic irradiation 2 Gy) was 13.9 min and the clearance ([2]; whole pelvic irradiation 2 Gy) was 65.1 ± 4.3 mL/min/kg. The half-life ([2]; whole pelvic irradiation 2 Gy) was 12.9 ± 2.8 min, the Vd ([2]; whole pelvic irradiation 2 Gy) was 0.903 ± 0.055 L/kg and the “fraction catabolyzed by the liver via the dihydropyrimidine dehydrogenase (DPD) pathway” value [3] was “About 80%”. For the same compound, the “reduction of the AUC of 5-FU by pelvic irradiation” value ([4]; 0.5 Gy vs non-irradiated controls, P = 0.019) was 17.6%, the “reduction of the AUC of 5-FU by pelvic irradiation” value ([4]; 2 Gy vs non-irradiated controls, P = 0.008) was 21.5% and the AUC ([4]; controls 0 Gy) was 78800 ng·h/mL. The Cmax ([4]; controls 0 Gy) was 164 ± 36 µg/mL, the MRT ([4]; controls 0 Gy) was 36.5 min and the clearance ([4]; controls 0 Gy) was 21.3 ± 1.9 mL/min/kg. The half-life ([4]; controls 0 Gy) was 34.7 ± 9.6 min, the Vd ([4]; controls 0 Gy) was 0.778 ± 0.088 L/kg and the AUC [4, 9] was 64900 ng·h/mL. The Cmax [4, 9] was 167 ± 23 µg/mL, the MRT [4, 9] was 30.9 min and the clearance [4, 9] was 25.8 ± 2 mL/min/kg. For the same compound, the half-life [4, 9] was 24.7 ± 3.5 min, the Vd [4, 9] was 0.775 ± 0.116 L/kg and the AUC ([4]; whole pelvic irradiation 2 Gy) was 61900 ng·h/mL. The Cmax ([4]; whole pelvic irradiation 2 Gy) was 179 ± 19 µg/mL, the MRT ([4]; whole pelvic irradiation 2 Gy) was 25 min and the clearance ([4]; whole pelvic irradiation 2 Gy) was 27.3 ± 3.6 mL/min/kg. The half-life ([4]; whole pelvic irradiation 2 Gy) was 29.9 ± 7.1 min, the Vd ([4]; whole pelvic irradiation 2 Gy) was 0.67 ± 0.06 L/kg and the “alanine aminotransferase (ALT) levels vs control group” value ([5]; 0.5 Gy followed by 5-FU) was “no significant difference”. For the same compound, the “alanine aminotransferase (ALT) levels vs control group” value ([5]; 2 Gy followed by 5-FU) was “no significant difference”, the “alanine aminotransferase (ALT) levels vs control group” value ([5]; 5-FU-treated only) was “no significant difference” and the AUC ([6]; plasma, controls with solvent) was 71400 ng·h/mL. The Cmax ([6]; plasma, controls with solvent) was 146 ± 35 µg/mL, the MRT ([6]; plasma, controls with solvent) was 36 min and the clearance ([6]; plasma, controls with solvent) was 23.4 ± 0.8 mL/min/kg. It also gave a half-life ([6]; plasma, controls with solvent) of 27.8 ± 3 min, an AUC [6, 10] of 71400 ng·h/mL and a Cmax [6, 10] of 151 ± 17 µg/mL. For the same compound, the MRT [6, 10] was 37 min, the clearance [6, 10] was 23.4 ± 1.1 mL/min/kg and the half-life [6, 10] was 33.3 ± 16.1 min. It also gave an AUC [6, 11] of 55100 ng·h/mL, a Cmax [6, 11] of 132 ± 51 µg/mL and an MRT [6, 11] of 26 min. It also gave a clearance [6, 11] of 30.3 ± 0.3 mL/min/kg, a half-life [6, 11] of 31 ± 8.8 min and a Vd ([6]; plasma, plasma, controls with solvent) of 0.836 ± 0.097 L/kg. It also gave a Vd ([6]; plasma, plasma, controls without solvent) of 0.859 ± 0.022 L/kg, an AUC [6, 12] of 66000 ng·h/mL and a Cmax [6, 12] of 122 ± 29 µg/mL. It also gave an MRT [6, 12] of 36 min, a clearance [6, 12] of 25.4 ± 2.8 mL/min/kg and a half-life [6, 12] of 32.3 ± 9.9 min. For the same compound, the Vd [6, 12] was 0.911 ± 0.127 L/kg and the Vd ([6]; plasma, plasma, whole pelvic irradiation 2 Gy with solvent) was 0.784 ± 0.11 L/kg.
In the case of `COc1ccc(S(=O)(=O)N2Cc3ccccc3C[C@@H]2C(=O)NO)cc1` [MMP-8 inhibitor], the “effect on the decreased MRT of 5-FU caused by irradiation” value [6, 13] is reported as “completely reversed”, the “effect on the increased clearance value of 5-FU caused by irradiation” value [6, 13] is reported as “completely reversed” and the “effect of pretreatment on the decline in AUC of 5-FU caused by pelvic irradiation” value ([6]; MMP-8 inhibitor 10 mg/kg 2 h before 2 Gy, P<0.05) is reported as “significantly attenuated”. For the same compound, the “effect of MMP-8 inhibitor alone on the AUC of 5-FU” value ([6]; plasma, in comparison with the controls) was “Neither the MMP-8 inhibitor alone nor its vehicle had a significant effect”.
For “recombinant MMP-8: recombinant matrix metalloproteinase-8, 10 µg/mL added to HepG2 cells”, the “effect on the AUC of intracellular 5-FU” value (HepG2 [7]) was “no significant effect” and the “toxicity to HepG2” value (HepG2 [8]) was “no significant toxicity”.
